Test results published in US11629171B2, “Beta-hairpin peptidomimetics” (POLYPHOR AG, priority 2017, dated 2023).
Converted amounts (≈) assume the structure as drawn. Where a SMILES comes first, the peptide text is derived from it. Bridges are numbered along the chain shown (N, C = ends). Roman numbers before positions name the chains, in order. [ ]: non-standard residue; d: D form. The star is where a group is joined. Tle = CC(C)(C)[C@H](N)C(=O)O; NMeV = CN[C@H](C(=O)O)C(C)C; dOrn = NCCC[C@@H](N)C(=O)O; Hiv = CC(C)[C@H](O)C(=O)O; dDab = NCC[C@@H](N)C(=O)O; hSer = N[C@@H](CCO)C(=O)O; NHCH(CH2OH)2 = OCC(CO)N*; Orn = NCCC[C@H](N)C(=O)O; Dab = NCC[C@H](N)C(=O)O; Abu = CC[C@H](N)C(=O)O; Dap = NC[C@H](N)C(=O)O

What was measured:
Format in all cases: cell-based
[1] = tested on: Acinetobacter baumannii 872842; conditions: 872842
Method in brief: (§1)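 CLSI broth microdilution in cation-adjusted Mueller-Hinton II broth with 0.002% polysorbate 80 (final), inoculum appr. 10^6 CFU/mL, peptides in serial two-fold dilutions. MIC (μg/mL) is the lowest concentration without visible growth after 18-20 h at 35° C.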

[2] = tested on: Acinetobacter baumannii DSM 30008; conditions: DSM 30008
Method in brief: as §1

[3] = tested on: Enterobacter cloacae 848840; conditions: 848840
Method in brief: as §1

Escherichia coli 926415 = conditions: 926415
Method in brief: as §1

[4] = tested on: Escherichia coli ATCC 25922; conditions: ATCC 25922
Method in brief: as §1

[5] = tested on: Klebsiella pneumoniae 968733; conditions: 968733
Method in brief: as §1

[6] = tested on: Klebsiella pneumoniae SSI #3010; conditions: SSI #3010
Method in brief: as §1

[7] = tested on: Pseudomonas aeruginosa ATCC 27853; conditions: ATCC 27853
Method in brief: as §1

[8] = tested on: human red blood cells (hRBC); assay: Hemolysis; conditions: red cells of human, 1 h, 200
Method in brief: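 Washed fresh human RBC (20% v/v) incubated with peptide at 200 μg/mL for 1 h at 37° C with shaking. Supernatant OD540 measured after dilution, blank corrected; percent hemolysis = OD540 peptide / OD540 of 2% Triton X-100 lysis × 100, PBS with 10% water as 0%.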

## CC(C)C[C@@H]1NC(=O)[C@@H](CC(C)C)NC(=O)[C@H](CCN)NC(=O)[C@@H](NC(=O)[C@H](CCN)NC(=O)[C@@H](NC(=O)[C@H](CCN)NC(=O)CC[C@@H]2NC(=O)[C@H](CCN)NC(=O)[C@H](Cc3ccc(O)cc3)NC(=O)[C@@H](NC(=O)[C@@H](N)C(C)C)CC(=O)NCC[C@@H](C(=O)N[C@@H](CO)C(=O)O)NC(=O)[C@H](C(C)(C)C)NC(=O)[C@H](CO)NC(=O)[C@H](Cc3c[nH]c4ccccc34)NC(=O)[C@H]([C@@H](C)O)NC(=O)[C@@H](CCN)NC2=O)[C@@H](C)O)CCNC(=O)[C@H]([C@@H](C)O)NC(=O)[C@H](CCN)NC(=O)[C@H](CCN)NC1=O [Ex. 55] (I: H-VDY[Dab]E[dDab]TWS[Tle][Dab]S-OH / II: [Dab]T[Dab][Dab][Dab][dL]L[Dab][Dab]T; lactam I:2-I:11, II:4-II:C; amide I:5-II:N)
[1]
  MIC: 1 µg/mL (≈ 0.418 µM)
[2]
  MIC: 0.5 µg/mL (≈ 0.209 µM)
[3]
  MIC: 8 µg/mL (≈ 3.34 µM)
Escherichia coli 926415
  MIC: 1 µg/mL (≈ 0.418 µM)
[4]
  MIC: 0.25 µg/mL (≈ 0.104 µM)
[5]
  MIC: 8 µg/mL (≈ 3.34 µM)
[6]
  MIC: 0.5 µg/mL (≈ 0.209 µM)
[7]
  MIC: 0.25 µg/mL (≈ 0.104 µM)
[8]
  Hemolysis at 200 μg/mL: 2%

## CC(=O)N[C@H](C(=O)N[C@H]1CCCNC(=O)[C@@H](CCCN)NC(=O)[C@H](C(C)(C)C)NC(=O)[C@H](CO)NC(=O)[C@H](Cc2c[nH]c3ccccc23)NC(=O)[C@H](CCO)NC(=O)[C@@H](CCN)NC(=O)[C@H](CCC(=O)N[C@@H](CCN)C(=O)N[C@H](C(=O)N[C@@H](CN)C(=O)N[C@H]2CCNC(=O)[C@H]([C@@H](C)O)NC(=O)[C@H](CCN)NC(=O)[C@H](CCN)NC(=O)[C@H](CC(C)C)NC(=O)[C@@H](CC(C)C)NC(=O)[C@H](CCN)NC2=O)[C@@H](C)O)NC(=O)[C@H](CO)NC(=O)[C@H](Cc2ccc(O)cc2)NC1=O)C(C)C [Ex. 29] (I: Ac-V[Orn]YSE[dDab][hSer]WS[Tle][dOrn] / II: [Dab]T[Dap][Dab][Dab][dL]L[Dab][Dab]T; lactam I:2-I:C, II:4-II:C; amide I:5-II:N)
[1]
  MIC: 1 µg/mL (≈ 0.428 µM)
[2]
  MIC: 0.125 µg/mL (≈ 0.0536 µM)
[3]
  MIC: 0.0625 µg/mL (≈ 0.0268 µM)
Escherichia coli 926415
  MIC: 4 µg/mL (≈ 1.71 µM)
[4]
  MIC: 0.0625 µg/mL (≈ 0.0268 µM)
[5]
  MIC: 8 µg/mL (≈ 3.43 µM)
[6]
  MIC: 0.125 µg/mL (≈ 0.0536 µM)
[7]
  MIC: 0.25 µg/mL (≈ 0.107 µM)
[8]
  Hemolysis at 200 μg/mL: 1%

## CN[C@H](C(=O)N[C@H](C(=O)N[C@@H](Cc1ccc(O)cc1)C(=O)N[C@H]1CSSC[C@@H](C(=O)N[C@H](C(=O)N[C@@H](C)C(=O)N[C@@H](CO)C(N)=O)C(C)C)NC(=O)[C@H](Cc2c[nH]c3ccccc23)NC(=O)[C@H](CO)NC(=O)[C@@H](CCN)NC(=O)[C@H](CCC(=O)N[C@@H](CCN)C(=O)N[C@H](C(=O)N[C@@H](CCN)C(=O)N[C@H]2CCNC(=O)[C@H]([C@@H](C)O)NC(=O)[C@H](CCN)NC(=O)[C@H](CCN)NC(=O)[C@H](CC(C)C)NC(=O)[C@@H](CC(C)C)NC(=O)[C@H](CCN)NC2=O)[C@@H](C)O)NC1=O)[C@@H](C)O)C(C)C [Ex. 184] (I: H-[NMeV]TYCE[dDab]SWCVAS-NH2 / II: [Dab]T[Dab][Dab][Dab][dL]L[Dab][Dab]T; disulfide I:4-I:9; amide I:5-II:N; lactam II:4-II:C)
[1]
  MIC: 1 µg/mL (≈ 0.422 µM)
[2]
  MIC: 0.125 µg/mL (≈ 0.0527 µM)
[3]
  MIC: 1 µg/mL (≈ 0.422 µM)
Escherichia coli 926415
  MIC: 2 µg/mL (≈ 0.844 µM)
[4]
  MIC: 0.125 µg/mL (≈ 0.0527 µM)
[5]
  MIC: 8 µg/mL (≈ 3.38 µM)
[6]
  MIC: 0.25 µg/mL (≈ 0.105 µM)
[7]
  MIC: 0.25 µg/mL (≈ 0.105 µM)
[8]
  Hemolysis at 200 μg/mL: <1%

## CC[C@@H]1NC(=O)[C@@H](CC(C)C)NC(=O)[C@H](CCN)NC(=O)[C@@H](NC(=O)[C@H](CN)NC(=O)[C@@H](NC(=O)[C@H](CCN)NC(=O)CC[C@@H]2NC(=O)[C@H](CCN)NC(=O)[C@H](Cc3ccc(O)cc3)NC(=O)[C@@H](NC(=O)[C@@H](NC(C)=O)C(C)C)CSSC[C@@H](C(=O)N[C@H](C(N)=O)[C@@H](C)O)NC(=O)[C@H]([C@@H](C)CC)NC(=O)[C@H](CO)NC(=O)[C@H](Cc3c[nH]c4ccccc34)NC(=O)[C@H](CO)NC(=O)[C@@H](CCN)NC2=O)[C@@H](C)O)CCNC(=O)[C@H]([C@@H](C)O)NC(=O)[C@H](CCN)NC(=O)[C@H](CCN)NC1=O [Ex. 143] (I: Ac-VCY[Dab]E[dDab]SWSICT-NH2 / II: [Dab]T[Dap][Dab][Dab][dL][Abu][Dab][Dab]T; disulfide I:2-I:11; amide I:5-II:N; lactam II:4-II:C)
[1]
  MIC: 0.03125 µg/mL (≈ 0.013 µM)
[2]
  MIC: 0.0625 µg/mL (≈ 0.0261 µM)
[3]
  MIC: 0.0625 µg/mL (≈ 0.0261 µM)
Escherichia coli 926415
  MIC: 0.125 µg/mL (≈ 0.0521 µM)
[4]
  MIC: 0.03125 µg/mL (≈ 0.013 µM)
[5]
  MIC: 0.0625 µg/mL (≈ 0.0261 µM)
[6]
  MIC: 0.0625 µg/mL (≈ 0.0261 µM)
[7]
  MIC: 0.125 µg/mL (≈ 0.0521 µM)
[8]
  Hemolysis at 200 μg/mL: 2%

## CC(C)C[C@@H]1NC(=O)[C@@H](CC(C)C)NC(=O)[C@H](CCN)NC(=O)[C@@H](NC(=O)[C@H](CN)NC(=O)[C@@H](NC(=O)[C@H](CCN)NC(=O)CC[C@@H]2NC(=O)[C@H](CO)NC(=O)[C@H](Cc3ccc(O)cc3)NC(=O)[C@@H](NC(=O)[C@@H](O)C(C)C)CSSC[C@@H](C(=O)N[C@@H](CO)C(=O)N[C@@H](CC(=O)O)C(N)=O)NC(=O)[C@H](C(C)(C)C)NC(=O)[C@H](CO)NC(=O)[C@H](Cc3c[nH]c4ccccc34)NC(=O)[C@H](CCN)NC(=O)[C@@H](CCN)NC2=O)[C@@H](C)O)CCNC(=O)[C@H]([C@@H](C)O)NC(=O)[C@H](CCN)NC(=O)[C@H](CCN)NC1=O [Ex. 372] (I: H-[Hiv]CYSE[dDab][Dab]WS[Tle]CSD-NH2 / II: [Dab]T[Dap][Dab][Dab][dL]L[Dab][Dab]T; disulfide I:2-I:11; amide I:5-II:N; lactam II:4-II:C)
[1]
  MIC: 0.125 µg/mL (≈ 0.0503 µM)
[2]
  Acinetobacter baumannii DSM 30008 MIC: 0.03125 µg/mL
[3]
  MIC: 0.25 µg/mL (≈ 0.101 µM)
Escherichia coli 926415
  MIC: 0.125 µg/mL (≈ 0.0503 µM)
[4]
  Escherichia coli ATCC 25922 MIC: 0.0625 µg/mL
[5]
  MIC: 0.25 µg/mL (≈ 0.101 µM)
[6]
  Klebsiella pneumoniae SSI #3010 MIC: 0.0625 µg/mL
[7]
  Pseudomonas aeruginosa ATCC 27853 MIC: 0.0625 µg/mL
[8]
  Hemolysis at 200 μg/mL: <1%

## CC(=O)N[C@H](C(=O)N[C@H]1CSSC[C@@H](C(=O)N[C@@H](CO)C(N)=O)NC(=O)[C@H](C(C)C)NC(=O)[C@H](CO)NC(=O)[C@H](Cc2c[nH]c3ccccc23)NC(=O)[C@H](CO)NC(=O)[C@@H](CCN)NC(=O)[C@H](CCC(=O)N[C@@H](CCN)C(=O)N[C@H](C(=O)N[C@@H](CN)C(=O)N[C@H]2CCNC(=O)[C@H]([C@@H](C)O)NC(=O)[C@H](CCN)NC(=O)[C@H](CCN)NC(=O)[C@H](CC(C)C)NC(=O)[C@@H](CC(C)C)NC(=O)[C@H](CCN)NC2=O)[C@@H](C)O)NC(=O)[C@H](Cc2c[nH]cn2)NC(=O)[C@H](Cc2ccc(O)cc2)NC1=O)C(C)C [Ex. 328] (I: Ac-VCYHE[dDab]SWSVCS-NH2 / II: [Dab]T[Dap][Dab][Dab][dL]L[Dab][Dab]T; disulfide I:2-I:11; amide I:5-II:N; lactam II:4-II:C)
[1]
  MIC: 0.0625 µg/mL (≈ 0.0257 µM)
[2]
  Acinetobacter baumannii DSM 30008 MIC: 0.01562 µg/mL
[3]
  MIC: 0.0625 µg/mL (≈ 0.0257 µM)
Escherichia coli 926415
  MIC: 0.125 µg/mL (≈ 0.0513 µM)
[4]
  Escherichia coli ATCC 25922 MIC: 0.01562 µg/mL
[5]
  MIC: 0.25 µg/mL (≈ 0.103 µM)
[6]
  Klebsiella pneumoniae SSI #3010 MIC: 0.125 µg/mL
[7]
  Pseudomonas aeruginosa ATCC 27853 MIC: 0.0625 µg/mL
[8]
  Hemolysis at 200 μg/mL: 1%

## CC(C)C[C@@H]1NC(=O)[C@@H](CC(C)C)NC(=O)[C@H](CCN)NC(=O)[C@@H](NC(=O)[C@H](CN)NC(=O)[C@@H](NC(=O)[C@H](CCN)NC(=O)CC[C@@H]2NC(=O)[C@@H](NC(=O)[C@H](Cc3ccc(O)cc3)NC(=O)[C@@H](NC(=O)[C@@H](O)C(C)C)[C@@H](C)O)CSSC[C@@H](C(=O)N[C@H](C(=O)N[C@@H](C)C(=O)NC(CO)CO)C(C)(C)C)NC(=O)[C@H](Cc3c[nH]c4ccccc34)NC(=O)[C@H](CO)NC(=O)[C@@H](CCN)NC2=O)[C@@H](C)O)CCNC(=O)[C@H]([C@@H](C)O)NC(=O)[C@H](CCN)NC(=O)[C@H](CCN)NC1=O [Ex. 197] (I: H-[Hiv]TYCE[dDab]SWC[Tle]A-{NHCH(CH2OH)2} / II: [Dab]T[Dap][Dab][Dab][dL]L[Dab][Dab]T; disulfide I:4-I:9; amide I:5-II:N; lactam II:4-II:C)
[1]
  MIC: 0.25 µg/mL (≈ 0.107 µM)
[2]
  MIC: 0.0625 µg/mL (≈ 0.0267 µM)
[3]
  MIC: 0.25 µg/mL (≈ 0.107 µM)
Escherichia coli 926415
  MIC: 0.5 µg/mL (≈ 0.213 µM)
[4]
  MIC: 0.0625 µg/mL (≈ 0.0267 µM)
[5]
  MIC: 0.5 µg/mL (≈ 0.213 µM)
[6]
  MIC: 0.125 µg/mL (≈ 0.0533 µM)
[7]
  MIC: 0.125 µg/mL (≈ 0.0533 µM)
[8]
  Hemolysis at 200 μg/mL: <1%
